One experiment concerns the target T1, human GST-DYRK1A (Homo sapiens, UniProt Q13627).
T1 construct: purified human GST-DYRK1A (full length, Thermo Scientifics) enzyme; purchased Thermo Scientifics
Kind of experiment: GST-DYRK1A enzyme inhibition, ADP-Glo kinase assay. The class given is biochemical. As to conditions: ATP 10 μM, GST-DYRK1A full length, read-out: DYRK1 IC50. The procedure, abridged:
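Full-length enzyme (10 ng) was incubated with 10 μM ATP and a specific substrate for 1 h at 25 °C in 40 mM Tris-HCl pH 7.4, 20 mM MgCl2, 0.5 mg/mL BSA, 50 μM DTT. Luminescence was read against a solvent control, and IC50 values were derived from 3 data sets.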

A further experiment concerns the target T2, human GST-CLK1 (Homo sapiens, UniProt P49759).
T2 construct: purified human GST-CLK1 (129-end, SignalChem) enzyme; purchased SignalChem
Kind of experiment: GST-CLK1 enzyme inhibition, ADP-Glo kinase assay. The class given is biochemical. As to conditions: ATP 10 μM, GST-CLK1 129-end. The gist of the method: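 ADP-Glo luminescence read-out, relative to untreated solvent control, gave IC50 (nM) from triplicate data sets. Reactions ran an hour at 25° C with 3 ng GST-CLK1 (residues 129-end), 10 μM ATP and specific substrate in Tris-HCl pH 7.4 buffer with MgCl2, BSA and DTT.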

The text below walks through data of patent US20230066011A1, “PYRROLOPYRIMIDINE DERIVATIVE, AND PHARMACEUTICAL COMPOSITION FOR PREVENTING OR TREATING PROTEIN KINASE-RELATED DISEASE COMPRISING SAME AS ACTIVE INGREDIENT” (VORONOI CO., LTD., priority 2019, published 2023).

Some results are limits rather than exact numbers.

T2 sequence (P49759 129-484 limits assumed): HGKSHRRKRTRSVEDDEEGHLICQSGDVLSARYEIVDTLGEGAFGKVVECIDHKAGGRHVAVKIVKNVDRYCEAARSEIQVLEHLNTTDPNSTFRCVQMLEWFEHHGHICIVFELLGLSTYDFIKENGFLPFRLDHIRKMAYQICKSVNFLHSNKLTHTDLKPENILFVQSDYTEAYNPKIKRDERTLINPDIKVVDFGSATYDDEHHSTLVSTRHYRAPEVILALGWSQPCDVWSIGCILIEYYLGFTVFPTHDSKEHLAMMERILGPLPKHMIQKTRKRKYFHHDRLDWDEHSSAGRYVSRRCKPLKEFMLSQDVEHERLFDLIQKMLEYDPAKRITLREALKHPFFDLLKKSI

In the case of `CCNc1nc(Nc2ccc(P(C)(C)=O)cc2OC)nc2[nH]cc(C(F)(F)F)c12` [Example 368, (4-((4-(ethylamino)-5-(trifluoromethyl)-7H-pyrrolo[2,3-d]pyrimidin-2-yl)amino)-3-methoxyphenyl) dimethyl-phosphine oxide], the IC50 at human GST-DYRK1A was 101 to 300 nM; at human GST-CLK1, under 100 nM.
For `N#Cc1c[nH]c2nc(Nc3ccc(C(=O)N4CC(CO)(CO)C4)c4c3OCCO4)nc(N[C@@H]3CCOC3)c12` [Example 335, (R)-2-((8-(3,3-bis(hydroxy-methyl)azetidine-1-carbonyl)-2,3-dihydrobenzo[b] [1,4]dioxin-5-yl)amino)-4-((tetrahydrofuran-3-yl)amino)-7H-pyrrolo[2,3-d]pyrimidine-5-carbonitrile], the IC50 on human GST-DYRK1A is 101 to 300 nM; at human GST-CLK1, under 100 nM.
As for `COc1cc(P2(=O)CCN(C3COC3)CC2)ccc1Nc1nc(NC2CCCC2)c2cc[nH]c2n1` [Example 239, 4-(4-((4-(cyclopentylamino)-7H-pyrrolo[2,3-d]pyrimidin-2-yl)amino)-3-methoxyphenyl)-1-(oxetan-3-yl)-1,4-azaphosphinane 4-oxide], the IC50 on human GST-DYRK1A and against human GST-CLK1 was 301 to 1000 nM in each case.
For `CC[C@@H](C)Nc1nc(Nc2ccc(P(C)(C)=O)cc2OC)nc2[nH]cc(C#N)c12` [Example 266, (R)-4-(sec-butylamino)-2-((4-(dimethylphosphoryl)-2-methoxyphenyl)amino)-7H-pyrrolo[2,3-d]pyrimidine-5-carbonitrile], the IC50 at human GST-DYRK1A was 101 to 300 nM; on human GST-CLK1, under 100 nM.
Turning to `CCCNc1nc(Nc2ccc(C(=O)N3CC(CO)(CO)C3)c3c2OCCO3)nc2[nH]cc(C#N)c12` [Example 327, 2-((8-(3,3-bis(hydroxy-methyl)azetidine-1-carbonyl)-2,3-dihydrobenzo[b] [1,4]dioxin-5-yl)amino)-4-(propylamino)-7H-pyrrolo[2,3-d]pyrimidine-5-carbonitrile], the IC50 on human GST-DYRK1A was 301 to 1000 nM; on human GST-CLK1 it was under 100 nM.
Consider `CC[C@@H](C)Nc1nc(Nc2ccc(P3(=O)CCN(C4COC4)CC3)cc2OC)nc2[nH]cc(C#N)c12` [Example 295, (R)-4-(sec-butylamino)-2-((2-methoxy-4-(1-(oxetan-3-yl)-4-oxido-1,4-azaphosphinan-4-yl)phenyl)amino)-7H-pyrrolo[2,3-d]pyrimidine-5-carbonitrile], for which the IC50 on human GST-DYRK1A is 301 to 1000 nM; on human GST-CLK1, under 100 nM.
For `CC(C)CNc1nc(Nc2ccc(C(=O)N3CCC(N4CCOCC4)CC3)c3c2OCC3)nc2[nH]cc(C#N)c12` [Example 351, 4-(isobutyl-amino)-2-((4-(4-morpholino-piperidine-1-carbonyl)-2,3-dihydro-benzofuran-7-yl)amino)-7H-pyrrolo[2,3-d]pyrimidine-5-carbonitrile], the results for the IC50 on human GST-DYRK1A and at human GST-CLK1 were 301 to 1000 nM and under 100 nM, respectively.
In the same order, the values of `N#Cc1c[nH]c2nc(Nc3ccc(C(=O)N4CCN(C5COC5)CC4)c4c3OCCO4)nc(NCC3CC3)c12` [Example 317, 4-((cyclo-propylmeth-yl)amino)-2-((8-(4-(oxetan-3-yl)piperazine-1-carbonyl)-2,3-dihydrobenzo[b] [1,4]dioxin-5-yl)amino)-7H-pyrrolo[2,3-d]pyrimidine-5-carbonitrile] are 301 to 1000 nM and under 100 nM.
On to `COc1cc(S(C)(=O)=O)ccc1Nc1nc(N[C@H]2CCOC2)c2c(C#N)c[nH]c2n1` [Example 108, (S)-2-((2-methoxy-4-(methylsulfonyl)phenyl)amino)-4-((tetrahydrofuran-3-yl)amino)-7H-pyrrolo[2,3-d]pyrimidine-5-carbonitrile], for which the IC50 is 301 to 1000 nM at human GST-DYRK1A and under 100 nM against human GST-CLK1.
Regarding `CC(C)CNc1nc(Nc2ccc(C(=O)N3CCC(N4CCOCC4)CC3)c3c2OCCO3)nc2[nH]cc(C#N)c12` [Example 139, 4-(isobutylamino)-2-((8-(4-morpholinopiperidine-1-carbonyl)-2,3-dihydrobenzo[b][1,4]dioxin-5-yl)amino)-7H-pyrrolo[2,3-d]pyrimidine-5-carbonitrile], the IC50 is 301 to 1000 nM at human GST-DYRK1A and under 100 nM at human GST-CLK1.
`CC(C)Nc1nc(Nc2ccc(C(=O)N3CCOCC3)c3c2OCC3)nc2[nH]cc(C#N)c12` [Example 352, 4-(isopropyl-amino)-2-((4-(morpholine-4-carbonyl)-2,3-dihydro-benzofuran-7-yl)amino)-7H-pyrrolo[2,3-d]pyrimidine-5-carbonitrile]: the IC50 on human GST-DYRK1A was 301 to 1000 nM; on human GST-CLK1, under 100 nM.
In the case of `N#Cc1c[nH]c2nc(Nc3ccc(C(=O)N4CCOCC4)c4c3OCC4)nc(NC3CCC3)c12` [Example 360, 4-(cyclo-butylamino)-2-((4-(morpholine-4-carbonyl)-2,3-dihydrobenzo-furan-7-yl)amino)-7H-pyrrolo[2,3-d]pyrimidine-5-carbonitrile], the results for the IC50 at human GST-DYRK1A and against human GST-CLK1 were 101 to 300 nM and under 100 nM, respectively.
Consider `CC[C@H](C)Nc1nc(Nc2ccc(S(C)(=O)=O)cc2OC)nc2[nH]ccc12` [Example 18, (S)-N^4-(sec-butyl)-N^2-(2-methoxy-4-(4-methylsulfonyl)phenyl)-7H-pyrrolo[2,3-d]pyrimidine-2,4-diamine], for which the IC50 on human GST-DYRK1A and on human GST-CLK1 was 301 to 1000 nM each time.
Regarding `COc1cc(S(C)(=O)=O)ccc1Nc1nc(N[C@@H]2CCOC2)c2cc[nH]c2n1` [Example 28, (R)-N^2-(2-methoxy-4-(methylsulfonyl)phenyl)-N^4-(tetrahydrofuran-3-yl)-7H-pyrrolo[2,3-d]pyrimidine-2,4-diamine], the IC50 on human GST-DYRK1A and at human GST-CLK1 was 301 to 1000 nM each time.
Regarding `COc1cc(P2(=O)CCN(C3CC3)CC2)ccc1Nc1nc(N[C@@H]2CCOC2)c2c(C#N)c[nH]c2n1` [Example 298, (R)-2-((4-(1-cyclopropyl-4-oxido-1,4-azaphosphinan-4-yl)-2-methoxyphenyl)a-mino)-4-((tetrahydrofuran-3-yl)amino)-7H-pyrrolo[2,3-d]pyrimidine-5-carbonitrile], the IC50 at human GST-DYRK1A and against human GST-CLK1 was 301 to 1000 nM in each case.
Consider `N#Cc1c[nH]c2nc(Nc3ccc(C(=O)N4CC(CO)(CO)C4)c4c3OCCO4)nc(N[C@H]3CCOC3)c12` [Example 336, (S)-2-((8-(3,3-bis (hydroxymethyl)azetidine-1-carbonyl)-2,3-dihydrobenzo[b] [1,4]dioxin-5-yl)amino)-4-((tetrahydrofuran-3-yl)amino)-7H-pyrrolo[2,3-d]pyrimidine-5-carbonitrile], for which the IC50 at human GST-DYRK1A was 301 to 1000 nM; on human GST-CLK1, under 100 nM.
Consider `N#Cc1c[nH]c2nc(Nc3ccc(C(=O)N4CCOCC4)c4c3OCCO4)nc(N[C@@H]3CCOC3)c12` [Example 127, (R)-2-((8-(morpholine-4-carbonyl)-2,3-dihydrobenzo[b][1,4]dioxin-5-yl)amino)-4-((tetrahydrofuran-3-yl)amino)-7H-pyrrolo[2,3-d]pyrimidine-5-carbonitrile], for which the IC50 at human GST-DYRK1A was 301 to 1000 nM; at human GST-CLK1, under 100 nM.
`COc1cc(P(C)(C)=O)ccc1Nc1nc(N[C@H]2CCOC2)c2c(C#N)c[nH]c2n1` [Example 271, (S)-2-((4-(dimethylphosphoryl)-2-methoxyphenyl)amino)-4-((tetrahydrofuran-3-yl)amino)-7H-pyrrolo[2,3-d]pyrimidine-5-carbonitrile]: the IC50 on human GST-DYRK1A is 301 to 1000 nM; on human GST-CLK1 it was 101 to 300 nM.
